Patent US20190381500A1, “CELL CONTAINED CONTAINER AND CELL CONTAINED CONTAINER PRODUCING METHOD, AND CELL CHIP” (priority 2018, published 2019)

How the values were obtained:
[1] = tested on: nerve cells C and nerve cells D (differentiated from human induced iPS cells); test: Drug efficacy screening (Hoechst 33342 / PI / Calcein AM staining, fluorescence microscope cell counting) in cell contained container 2; assay type: cell-based; conditions: for Living cells / Dead cells: next day after addition
Procedure: The amount of the drug solution used was from 50 μL through 5,000 μL.
On the next day after the drug solution was added, the culture medium in each concave of the cell contained container was removed, and the concaves were washed with Hank's balanced salt solution (HBSS, available from Thermo Fisher Scientific Inc.) (200 microliters) at room temperature. After washing, HOECHST 33342 (available from Thermo Fisher Scientific Inc.), PI (Propidium Iodide, available from Cosmo Bio Co., Ltd.), and CALSEIN AM (available from Takara Bio Inc.) were each diluted 1,000-fold with HBSS, to prepare a stain mixture liquid, and the prepared stain mixture liquid was added in an amount of 200 microliters each. The cell contained container was then left to stand still in a 5% CO2 incubator for 20 minutes.
A fluorescence microscope image of the cell stained container after staining was completed was captured with a fluorescence microscope. The obtained fluorescence microscope image was processed with image processing software IMAGE J, to calculate the number of cells and the number of dead cells.

[2] = tested on: nerve cells C and nerve cells D; assay type: cell-based, human; conditions: 100, 160, 220 micromoles; 20 hours; FIG. 23
Procedure: N9 culture media (available from Elixirgen Scientific, LLC) to which zinc chloride as a test substance at four concentration conditions of 0 micromoles, 100 micromoles, 160 micromoles, and 220 micromoles was added respectively were added in the evaluation container of Production example 2 in an amount of 100 microliters with a micropipette, and the container was left to stand still overnight (for 20 hours) in a CO2 incubator at 37 degrees C.
Next, in order to evaluate the influence of zinc chloride on the cell survival rate, a WST-1 reagent (product name: PREMIX WST-1 CELL PROLIFERATION ASSAY SYSTEM, available from Takara Bio Inc.) was added in an amount of 10 microliters per well (concave), and left to stand still for 1 hour in an CO2 incubator at 37 degrees C. to be allowed to undergo reaction. Subsequently, absorbances at 450 nm, and as a reference value, at 570 nm were measured with a plate reader (instrument name: CYTATION 5, available from Bio Tek Instruments Inc.), to evaluate “cell survival rate”. The results are plotted in FIG. 23.

[3] = tested on: nerve cells C and nerve cells D; assay type: cell-based, human; conditions: 100, 160, 220 micromoles; 20 hours; FIG. 24
Procedure: In the same manner as in the evaluation of the cell survival rate, the N9 culture medium to which zinc chloride was added as described above was added, and the container was left to stand still overnight (for 20 hours) in a CO2 incubator at 37 degrees C.
In order to evaluate the influence of zinc chloride on cell membrane damage, only the culture medium was recovered with a micropipette and put in a 96-well cell contained container, a LDH assay reagent (product name: CYTOTOXICITY DETECTION KIT, available from Roche) was further added to each, and the resultant was allowed to undergo reaction at room temperature (23 degrees C.) for 5 minutes. Subsequently, absorbances at 492 nm, and as a reference value, at 620 nm were measured with a plate reader, to evaluate “cell membrane damage rate”. The results are plotted in FIG. 24.

[4] = tested on: IL-8 production of nerve cells C and nerve cells D; test: Cytotoxicity evaluation: inflammatory substance production (IL-8 ELISA); assay type: cell-based, human; conditions: 100, 160, 220 micromoles; 20 hours; FIG. 25
Procedure: In the same manner as in the evaluation of the cell survival rate, a N9 culture medium (available from Elixirgen Scientific, LLC) to which zinc chloride was added was added, and the container was left to stand still overnight (for 20 hours) in a CO2 incubator at 37 degrees C.
In order to evaluate the influence of zinc chloride on inflammatory substance production, only the culture medium was recovered with a micropipette. IL-8 production was measured by ELISA method using a protein measurement kit (product name: HUMAN IL-8 ELISA READY-SET-GO! (registered trademark), available from Affymetrix), and absorbances at 450 nm, and as a reference value, at 570 nm were measured with a plate reader. The results are plotted in FIG. 25.

[5] = drug concentration 0.1 micromoles
[6] = drug concentration 0.3 micromoles
[7] = drug concentration 1.0 micromoles
[8] = drug concentration 3.0 micromoles
[9] = drug concentration 10 micromoles

## CN[C@@H]1C[C@H]2O[C@@](C)([C@@H]1OC)n1c3ccccc3c3c4c(c5c6ccccc6n2c5c31)C(=O)NC4 [STAUROSPORINE]
[1]; [5]
  Drug efficacy rate (living cells/dead cells): 70%
  Living cells: 271 cell
[1]; [6]
  Drug efficacy rate (living cells/dead cells): 57%
  Dead cells: 202 cell
  Living cells: 270 cell
[1]; [7]
  Drug efficacy rate (living cells/dead cells): 54%
  Living cells: 268 cell
[1]; [8]
  Drug efficacy rate (living cells/dead cells): 42%
  Dead cells: 270 cell
  Living cells: 197 cell
[1]; [9]
  Drug efficacy rate (living cells/dead cells): 2%
  Dead cells: 474 cell
  Living cells: 11 cell

## [Cl-].[Cl-].[Zn+2] [zinc chloride]
[2]
  cell survival rate, nerve cells C compared with nerve cells D: almost the same toxic response tendency
[3]
  cell membrane damage rate, nerve cells C compared with nerve cells D: almost the same toxic response tendency
[4]
  inflammatory substance production (IL-8), nerve cells C compared with nerve cells D: almost the same toxic response tendency
